Measured values reported in PubChem BioAssay AID1863 (Southern Research Specialized Biocontainment Screening …, 2009).
pIC50: −log10 of the molar value.

Tested on: S. Typhimurium PhoP-regulated promoter GFP reporter, 4 h;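 active = inhibition over 29.93%, a cutoff 3 SD above the screen mean, later confirmed by dose response; inconclusive = inhibition over 29.93% but no dose response follow-up; inactive = inhibition at most 29.93% or unconfirmed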
Assay: inhibitors of PhoP regulon expression, primary screen, Salmonella Typhimurium, GFP reporter (AID 1863)

pIC50, active:
CCOc1ccc(NC(=O)c2ccc(NC(=O)c3cn4c5c(c(N6CCN(C)CC6)c(F)cc5c3=O)OCC4C)cc2)cc1 (centres undefined) 5.53
Oc1ccc(CN2CCN(Cc3ccccc3)CC2)c2cccnc12 4.21
CCn1cc(C(=O)O)c(=O)c2cc(F)c(N3CCN(C(=S)NC(=O)c4cccc(C)c4)CC3)cc21 4.83
Cc1ccc(Nc2nc(N)c3ccccc3n2)cc1Cl 4.17
CO/N=C(/C(=O)N[C@@H]1C(=O)N2C(C(=O)O)=CCS[C@H]12)c1cnc(N)s1 4.80
CCCCCCCCCCOC(=O)Cn1c(COc2ccccc2)[n+](C)c2ccccc21 4.75
Cc1cc2nc3ccc(=[N+](C)C)cc-3sc2cc1N 4.49
COc1ccc(C(=O)Cn2nc(CNc3ccc(Br)cc3)[n+]3c2CCCCC3)cc1 4.09
CN(O)/C=c1/ccc2c(n1)C(=O)C=CC=2 3.95
Cc1ccccc1Nc1cc(C)c2c(O)cccc2n1 4.21
Cc1nc(N)nc(N)c1/C=C/C(C)(C)c1ccc(Cl)cc1 4.73
COc1c(N2CCN[C@H](C)C2)c(F)cc2c(=O)c(C(=O)O)cn(C3CC3)c12 6.44
Oc1ccc(CN2CCCc3ccccc32)c2cccnc12 4.16
Nc1nonc1C(=O)N/N=C/c1cc(Br)ccc1O 4.77
C/C(=N\NC(=O)c1cc2ccccc2cc1O)c1ccccn1 4.42
CCCCCCCOC(=O)C[N+](C)(C)CCOC1CC2CCC1(C)C2(C)C (centres undefined) 4.60
Cc1ccc(C)c(/C=C/C(=O)c2ccccc(=O)c2O)c1 4.05
CCn1cc(C(=O)NCC(C)C)c(=O)c2cc(F)c(N3CCN(C)CC3)cc21 4.42
CN1CCN(C(c2ccc(Br)cc2)c2cc(Cl)c3cccnc3c2O)CC1 (centres undefined) 4.52
NC1=NC[C@H](Cc2ccc(O)cc2)N1CCC12CC3CC(CC(C3)C1)C2 4.12
OCCNCc1c(OCc2ccc(Cl)cc2)ccc2ccccc12 3.90
CCCCCCCCCC[n+]1cccc2c3ccccc3ccc21 4.64
C(=N\Nc1ccccn1)/c1cccnc1 4.39
O=C(N/N=C\c1cccc([N+](=O)[O-])c1O)C1COc2ccccc2O1 (centres undefined) 3.98
CCCCCCCNC(=O)C1(CC2CC(c3cccc(Br)c3)=NO2)CCNCC1 (centres undefined) 4.34
Cc1scc(C(=O)N/N=C/c2ccc([N+](=O)[O-])o2)c1C 3.96
C#CCOCCOCCOCCNc1nc(N2CCN(C(=O)CCCCCCCCCCNC(=O)[C@H]([C@@H](C)CC)n3cc(CCCCN=C(N)N)nn3)CC2)nc(N2CCN(C(=O)CCCCCCCCCCNC(=O)[C@H](CCCN=C(N)N)n3cc(C[C@@H](C)CC)nn3)CC2)n1 4.12
CCC(C)(C)c1ccc(OCCCC[n+]2ccc(C)cc2)c(C(C)(C)CC)c1 4.17
Cc1ccc(C(=O)N/N=C/c2cc(Br)ccc2O)cn1 4.12
